In patent US5753631A, “Intercellular adhesion mediators” (Cytel Corporation, priority 1995, dated 1998):

Legend:
[1] = tested on: IgA immune complex induced lung injury; assay: IgA immune complex-induced acute lung injury in the rat; assay type: in vivo, rat (male Long-Evans)
Procedure: Groups of rats were dosed with either vehicle, SLN-OH (100 μpg), or with SLX-OH (100 μg) […] post induction of inflammation. Each bar represents the mean of 6 animals and vertical lines represent the standard error of the mean.
Adult male (300 g) specific pathogen-free Long-Evans rats purchased from Charles River Labs (Portage, Mich.) were employed in the studies. For the induction of IgG immune complex pulmonary inflammation rabbit polyclonal IgG rich in antibody to bovine serum albumin (antiBSA) was purchased from Organon Teknika (Westchester, PA). Intraperitoneal ketamine (10 mg/Kg) was administered for anesthesia. 2.5 mg of anti-BSA in a volume of 300 μl was instilled intratracheally via a small intratracheal catheter during inspiration after surgical exposure of the trachea. Intravenous injection of 10 mg BSA was injected intravenously to generate immune complex formation. Trace amounts of ^125 I-BSA and ^51 Cr-RBC were administered with the BSA as markers for plasma and RBC extravasation respectively. Rats were sacrificed 4 h later and lung injury was assessed by the ratio of radiolabelled albumin in the lungs relative to the circulation (permeability), the ratio of RBC in the lungs relative to the circulation (hemorrhage) and the amount of myeloperoxidase activity in a lung homogenate (neutrophil accumulation). For induction of IgA immune complex induced lung injury 1.2 mg of a murine myeloma IgA protein specific for dinitrophenol (DNP) was instilled intratracheally and 3.3 mg DNP-bovine serum albumin injected intravenously. Lung injury was assessed in the same manner described for IgG-induced lung injury.
SLX-OH, Z, the non-fucosylated control oligosaccharide SLN, or an equivalent volume of PBS were injected intravenously in three equally divided doses at 2, 2.5, and 3 h following deposition of immune complexes. This schedule for injections was selected since it coincides with the time during which rapid expression of E-selectin occurs in the pulmonary vasculature.

[2] = tested on: CVF-induced acute lung injury; assay: Cobra venom factor (CVF)-induced acute lung injury in the rat; assay type: in vivo; conditions: 200 μg prior to CVF (FIG. 16: 0.6 mg/Kg)
Procedure: Groups of rats were pretreated with either vehicle, SLN-OH (0.6 mg/Kg), or with SLX-OH (0.6 mg/Kg) 5 minutes prior to administration of either CVF or PBS. Each bar represents the mean of 6 animals and vertical lines represent the standard error of the mean.
Groups of rats were pretreated with either vehicle or Z at the indicated doses 5 minutes prior to administration of CVF or PBS. Each point represents the mean of 6 animals and vertical lines represent the standard error of the mean.
The intravenous injection of CVF produces intravascular complement activation which results in lung injury, defined as an increase in neutrophil accumulation within the lung, an increase in pulmonary vascular permeability and in lung hemorrhage. It is likely that intravascular complement activation results in the generation of a wide range of inflammatory mediators. Of particular relevance to the studies described here is generation of the split fifth complement component, C5a, which can stimulate the release of histamine from circulating basophils and tissue mast cells. […] The expression of selectins, including P-selectin, is a necessary first step in the process of leukocyte adherence to vascular endothelium.
Animals were dosed with different oligosaccharide preparations or phosphate buffered saline (PBS) five minutes before administration of cobra venom factor (20 units/Kg, i.v.). Included in this material was an aliquot of ^125 I-bovine serum albumin (0.5 μCi) and ^51 Cr labelled autologous red blood cells (0.5 μCi) for measuring plasma extravasation and hemorrhage respectively. Thirty minutes after administration of the cobra venom factor the animals were anesthetized with ketamine hydrochloride (10 mg/Kg) and exsanguinated via the posterior vena cava. The lung vasculature was then perfused through the right cardiac ventricle with 10 mL of PBS. The lungs were removed and the amount of radioactivity remaining within the tissue assessed with a gamma scintillation counter. Increased pulmonary vascular permeability was measured as the ratio of ^125 I in lung tissue compared with the amount present in 1 mL of venous blood obtained at the time of death. Lung hemorrhage was measured as the ratio of ^51 Cr in lung tissue compared with the amount present in 1 mL of venous blood obtained at the time of death. Neutrophil accumulation in lungs was determined by measuring the myeloperoxidase activity of lungs homogenized in PBS. Myeloperoxidase activity in lung supernatants was assayed by measuring the change in absorbance at 460 nm resulting from decomposition of H2 O2 in the presence of o-dianisidine

[3] = tested on: IgG immune complex-induced acute lung injury; assay: IgG immune complex-induced acute lung injury in the rat; assay type: in vivo, rat (male Long-Evans); conditions: conclusion in words
E-Selectin = target: T1, E-Selectin (Homo sapiens, UniProt P16581); assay: Glycolipid liposome inhibition of HL-60 cell adhesion to IL-1β activated endothelial cells; assay type: cell-based; conditions: liposomes; for inhibition of adhesion of HL-60 cells to activated endothelial cells: 4° C. (FIG. 5); for reduction of HL-60 cell adhesion to activated endothelial cells: 37° C.
T1 construct: adhesion of HL-60 cells
T1 sequence (P16581 22-610): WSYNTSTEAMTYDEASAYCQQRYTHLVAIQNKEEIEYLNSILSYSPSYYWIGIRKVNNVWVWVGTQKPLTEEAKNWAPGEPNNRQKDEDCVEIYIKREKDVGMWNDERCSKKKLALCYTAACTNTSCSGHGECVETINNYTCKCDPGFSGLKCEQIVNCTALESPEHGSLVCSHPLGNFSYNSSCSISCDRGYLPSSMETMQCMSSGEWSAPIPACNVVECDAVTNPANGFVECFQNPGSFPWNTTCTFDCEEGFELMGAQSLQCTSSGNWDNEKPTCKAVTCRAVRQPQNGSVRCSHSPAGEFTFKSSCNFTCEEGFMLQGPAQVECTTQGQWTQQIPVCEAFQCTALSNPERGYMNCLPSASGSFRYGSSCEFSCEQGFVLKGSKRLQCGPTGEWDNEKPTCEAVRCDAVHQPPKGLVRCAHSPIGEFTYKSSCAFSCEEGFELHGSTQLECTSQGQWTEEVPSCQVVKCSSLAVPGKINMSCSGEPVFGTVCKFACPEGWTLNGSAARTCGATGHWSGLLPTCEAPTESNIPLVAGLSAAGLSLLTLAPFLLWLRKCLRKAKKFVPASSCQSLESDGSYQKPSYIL
Excerpt: This Example describes the preparation of liposomes which contain various biosynthetically produced glycosphingolipids on which the terminal carbohydrate units are either SLe^x, Le^x, or similar but not identical compounds. The ability of the liposomes which contain SLe^x or SLe^x mimetics to block the binding of SLe^x -expressing HL-60 cells and LEC11 cells to endothelial cells that have been stimulated to express E-Selectin by treatment with IL-1β is shown.
Materials: The glycosphingolipids used in this experiment are shown in Table I; they were obtained from the Biomembrane Institute, Seattle, Wash., and were either purified or biosynthetically produced and characterized by NMR and mass spectrometry, as generally described in Hakomori, S. I., et al., J. Biol. Chem., 259:4672 (1984), and Fukushi Y., et al., J. Biol. Chem. 259:10511 (1984), incorporated by reference herein. […] Nonsialylated diLex was similarly synthesized using nLc6 as substrate and the cell line NCI H-69. See Holmes et al., J. Biol. Chem. 260:7619 (1985), incorporated by reference herein. SPG and SH were purified from bovine red blood cells, and nLc6 was produced by chemical removal of the terminal sialosyl residue from SH.
Liposomes containing the glycosphingolipids were formed as follows: 100 μg of glycolipid was added to 300 μg phosphatidylcholine (Sigma, egg yolk) and 500 μg cholesterol (Sigma) in chloroform-methanol (2:1) and the whole solution evaporated to dryness by N2 in 15 ml screwcap tubes.
Passage 3 HUVEC, which had been grown to confluence on a gelatin coated 48 well assay plate (Costar) were used as the source of endothelial cells. The plates were prepared as previously described. Two sets of triplicate wells were left unstimulated as controls. Fourteen sets of triplicates were stimulated with IL-1β at 30 μg/ml in a 0.5 ml volume of EGM-UV. Cells were stimulated for exactly 4 hrs. HL-60 cells and LEC11 cells were cultured as described above.
1. One 48 well Costar cluster dish containing HUVEC grown to confluence on gelatin was removed from the incubator and the medium in each well was removed with a pasteur pipette and replaced either with 0.5 ml fresh EGM-UV medium or with the same medium containing 30 μg/ml IL-1β,and the plate then returned to the incubator for 4 hrs.
2. HL-60 cells and LEC11 cells were harvested and washed in CRPMI. A viable cell count was made using trypan blue. 6×10^6 cells of each cell type were radiolabeled as follows: 3×10^6 cells of each type were placed in each of two 10 ml test tubes and 300 μl of ^51 Cr (450 μCi) (New England Nuclear) was added to each tube. The tubes were allowed to incubate 1 hr. at 37° C. with gentle agitation.
3. Radiolabeled HL-60 and LEC11 cells were washed 3× in CRPMI and pooled into one tube. […]

P-Selectin = target: T2, P-Selectin (Homo sapiens, UniProt P16109); assay: Glycolipid liposome inhibition of HL-60 cell adhesion to activated platelets; assay type: cell-based; conditions: liposomes, FIG. 7
T2 construct: endogenous in cells
T2 sequence (P16109 42-830): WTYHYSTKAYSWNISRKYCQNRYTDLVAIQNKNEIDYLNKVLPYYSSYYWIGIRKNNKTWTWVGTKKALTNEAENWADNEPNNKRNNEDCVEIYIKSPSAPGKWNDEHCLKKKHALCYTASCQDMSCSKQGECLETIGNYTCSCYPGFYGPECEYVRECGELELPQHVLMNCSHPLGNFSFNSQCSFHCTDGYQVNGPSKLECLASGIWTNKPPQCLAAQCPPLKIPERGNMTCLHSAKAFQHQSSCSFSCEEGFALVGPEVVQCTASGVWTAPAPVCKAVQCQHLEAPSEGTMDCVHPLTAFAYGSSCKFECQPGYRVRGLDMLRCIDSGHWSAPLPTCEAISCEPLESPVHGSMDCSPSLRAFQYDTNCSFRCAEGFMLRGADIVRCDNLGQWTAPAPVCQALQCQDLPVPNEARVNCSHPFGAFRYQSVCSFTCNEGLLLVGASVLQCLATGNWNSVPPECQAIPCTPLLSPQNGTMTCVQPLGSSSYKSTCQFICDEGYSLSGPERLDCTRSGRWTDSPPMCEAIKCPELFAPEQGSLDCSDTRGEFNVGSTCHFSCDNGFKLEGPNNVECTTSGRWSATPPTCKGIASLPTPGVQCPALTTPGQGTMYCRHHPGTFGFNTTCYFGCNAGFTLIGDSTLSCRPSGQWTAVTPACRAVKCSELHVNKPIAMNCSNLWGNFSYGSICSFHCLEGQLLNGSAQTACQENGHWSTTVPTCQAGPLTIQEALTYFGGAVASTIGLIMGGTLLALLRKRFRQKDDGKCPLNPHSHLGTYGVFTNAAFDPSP
Procedure: The assays generally followed the protocol described in Larsen et al., Cell 63: 467-474 (1990), which is incorporated herein by reference.
Glycosphingolipids and liposomes were prepared as described in Example IV. The platelets were prepared as described in Example V, except that blocking of Fc receptors was not performed. HL60 cells were prepared as described above.
1. 20 μl of activated platelet preparation was placed in each of 28 1.5 ml microfuge tubes (14 duplicate samples).
2. 20 μl of the diluted liposomes at […], 5 μg or 2 μg, or 20 μl of the control buffers, were added to the appropriate tube of each duplicate.
3. The platelets were incubated with the liposome preparations for 20 min. at room temp.
4. Neutrophils or HL-60 cells at 2×10^6 cells/ml were each added to one set of liposome-treated platelets. 20 μl of cell suspension were added to each tube.
5. The tubes were mixed and allowed to stand at room temperature for 20 min. Then they were applied to a hemacytometer and the cells were scored as positive (2 or more platelets attached/cell) or negative (less than 2 platelets attached/cell).

Compound | protection assessed by vascular permeability and hemorrhage ([1]; FIG. 20, 100 μg) | effect on IgA immune complex-induced neutrophil accumulation and pathological sequelae ([1]; conclusion in words) | reduction of permeability value ([2]; P<0.001) | reduction of hemorrhage ([2]; P<0.004) | reduction of MPO content ([2]; P<0.006) | effect on IgG immune complex-induced neutrophil accumulation / lung injury [3] | inhibition of adhesion of HL-60 cells to activated endothelial cells (E-Selectin) | reduction of HL-60 cell adhesion to activated endothelial cells (E-Selectin) | inhibition of adhesion of HL-60 cells to activated platelets (P-Selectin)
CC(=O)N[C@H]1[C@H]([C@H](O)[C@H](O)CO)O[C@@](O[C@H]2[C@@H](O)[C@@H](CO)O[C@@H](O[C@H]3[C@H](O[C@@H]4O[C@@H](C)[C@@H](O)[C@@H](O)[C@@H]4O)[C@@H](NC(C)=O)C(O)O[C@@H]3CO)[C@@H]2O)(C(=O)O)C[C@@H]1O (stereo partly drawn) [SLX-OH, NeuAcα2,3Gal,β1 4(Fucα1,3)GlcNAc-OH] | did not afford any protection from IgA immune complex induced lung injury | not IgA | 43% | 41% | 35% | blocked IgG |  |  | 
III^3 V^3 Fuc2 VI^3 NeuAcnLc6 [S-diLe^x] |  |  |  |  |  |  | dramatically inhibited | 70% | dramatically inhibited
III^3 V^3 Fuc2 nLc6 [di-Le^x, reference compound] |  |  |  |  |  |  | minimal inhibition | 40% | minimal inhibition
